Experimental data published in publication PMC9857996, “Inhibition of Iron Release from Donkey Spleen Ferritin through Malt-Derived Protein Z–Ferulic Acid Interactions” (Foods, 2023).

Biological target: T1, protein Z (PZ)
T1 construct: gene PAZ1; single band ~40 kDa; three Trp printed (Trp-150, Trp-186, Trp-257)
Test: Trp fluorescence quenching titration
Format: binding, Hordeum vulgare
Details: 50.0 mM sodium citrate pH 4.2, 25 °C; 1.0 μM PZ; n = 22.11 ± 2.13 sites per PZ; read-out: K

- Kd: 2 µM
Compound: COc1cc(/C=C/C(=O)O)ccc1O [ferulic acid]
